Measurements taken from patent US5110800A, “Derivatives of erythromycylamine” (Eli Lilly and Company, priority 1989, dated 1992).
≈ marks a conversion by molar mass, not a printed value. Read-outs that look alike come from different tables or passages of the source.

Columns and labels:
Test in all cases: MIC, standard agar-dilution assay
Assay type in all cases: cell-based
[1] = system: Haemophilus influenzae C.L.; settings: Haemophilus influenzae, read-out: minimal inhibitory concentration (MIC)
[2] = system: Staphylococcus aureus S13E; settings: Staphylococcus aureus, S13E, read-out: minimal inhibitory concentration (MIC)
[3] = system: Escherichia coli EC14; settings: Escherichia coli
[4] = system: Staphylococcus epidermidis 222; settings: Staphylococcus epidermidis, 222, read-out: minimal inhibitory concentration (MIC)
[5] = system: Klebsiella pneumoniae X68; settings: Klebsiella pneumoniae
[6] = system: Streptococcus sp. group D 2041; settings: Streptococcus, read-out: minimal inhibitory concentration (MIC)
[7] = system: Staphylococcus aureus V41; settings: Staphylococcus aureus, V41, penicillin-resistant strain, inducibly erythromycin-resistant, read-out: minimal inhibitory concentration (MIC)
Text: (§1) In addition to excellent in vitro activity against erythromycin-sensitive bacteria, several members of this new series have shown in vitro activity against erythromycin-resistant strains. These include strains which are inducibly-resistant to erythromycin (S. aureus V41 and X400 and S. epidermidis EPI1) and even strains which are constitutively-resistant (S. epidermidis 270).

[8] = system: Staphylococcus aureus X400; settings: Staphylococcus aureus, X400, methicillin-resistant strain, inducibly erythromycin-resistant, read-out: minimal inhibitory concentration (MIC)
Text: as §1

[9] = system: Staphylococcus epidermidis 270; settings: Staphylococcus epidermidis, 270; Table IV; constitutively erythromycin-resistant; read-out: minimal inhibitory concentration (MIC)
Text: as §1

[10] = system: Haemophilus influenzae 76; settings: Haemophilus influenzae, 76, ampicillin-resistant strain, read-out: minimal inhibitory concentration (MIC)
[11] = system: Staphylococcus aureus X1.1; settings: Staphylococcus aureus, X1.1, read-out: minimal inhibitory concentration (MIC)
[12] = system: Streptococcus pyogenes C203; settings: Streptococcus pyogenes, C203, read-out: minimal inhibitory concentration (MIC)
[13] = system: Streptococcus sp. group D X66; settings: Streptococcus, read-out: minimal inhibitory concentration (MIC)
[14] = system: Streptococcus pneumoniae Park I; settings: Streptococcus pneumoniae, read-out: minimal inhibitory concentration (MIC)
[15] = system: Staphylococcus epidermidis EPI1; settings: EPI1, read-out: minimal inhibitory concentration (MIC)
Text: as §1

[16] = EC14, read-out: minimal inhibitory concentration (MIC)
[17] = X68, read-out: minimal inhibitory concentration (MIC)
[18] = EC14, Table V, agar dilution, read-out: minimal inhibitory concentration (MIC)
[19] = X68, Table V, agar dilution, read-out: minimal inhibitory concentration (MIC)

Compound | MIC [2] | MIC [3, 16] | MIC [4] | MIC [5, 17] | MIC [11] | MIC [12] | MIC [13] | MIC [14] | MIC [3, 18] | MIC [15] | MIC ([7]; Table V) | MIC ([8]; Table V) | MIC [5, 19] | other results
CC[C@H]1OC(=O)[C@H](C)[C@@H](O[C@H]2C[C@@](C)(OC)[C@@H](O)[C@H](C)O2)[C@H](C)[C@@H](O[C@@H]2O[C@H](C)C[C@H](N(C)C)[C@H]2O)[C@](C)(O)C[C@@H](C)[C@H](NCCOCCOC)[C@H](C)[C@@H](O)[C@H]1C [Compound 49] | 0.5 µg/mL (≈ 0.609 µM) | 128 µg/mL (≈ 156 µM) | 1 µg/mL (≈ 1.22 µM) | 128 µg/mL (≈ 156 µM) | 1 µg/mL (≈ 1.22 µM) | 0.015 µg/mL (≈ 0.0183 µM) | 0.25 µg/mL (≈ 0.304 µM) | 0.015 µg/mL (≈ 0.0183 µM) | – | – | – | – | – | MIC ([1]; Table IV, ampicillin-sensitive strain): 4 µg/mL (≈ 4.87 µM); MIC ([6]; Table IV, agar dilution): 4 µg/mL (≈ 4.87 µM); MIC ([7]; Table IV): 128 µg/mL (≈ 156 µM); MIC ([8]; Table IV): > 128 µg/mL; MIC [9]: > 128 µg/mL; MIC ([10]; Table IV): 8 µg/mL (≈ 9.74 µM)
CC[C@H]1OC(=O)[C@H](C)[C@@H](O[C@H]2C[C@@](C)(OC)[C@@H](O)[C@H](C)O2)[C@H](C)[C@@H](O[C@@H]2O[C@H](C)C[C@H](N(C)C)[C@H]2O)[C@](C)(O)C[C@@H](C)[C@H]2[C@H](C)[C@@H](OCN2C(C)CCCN(C)C)[C@]1(C)O (some centres unmarked) [Compound 63, 9-Deoxo-9-[(5-dimethylamino-2-pentyl)amino]-9,11-(N,O)-cyclic-Methylene Adduct of Erythromycin] | 8 µg/mL (≈ 9.3 µM) | – | 8 µg/mL (≈ 9.3 µM) | 128 µg/mL (≈ 149 µM) | 8 µg/mL (≈ 9.3 µM) | 0.5 µg/mL (≈ 0.581 µM) | 2 µg/mL (≈ 2.33 µM) | 0.5 µg/mL (≈ 0.581 µM) | 32 µg/mL (≈ 37.2 µM) | > 128 µg/mL | > 128 µg/mL | > 128 µg/mL | – | MIC ([1]; Table V, ampicillin-sensitive strain): 8 µg/mL (≈ 9.3 µM); MIC ([6]; Table V, agar dilution): 32 µg/mL (≈ 37.2 µM); MIC ([10]; Table V): 8 µg/mL (≈ 9.3 µM)
CC[C@H]1OC(=O)[C@H](C)[C@@H](O[C@H]2C[C@@](C)(OC)[C@@H](O)[C@H](C)O2)[C@H](C)[C@@H](O[C@@H]2O[C@H](C)C[C@H](N(C)C)[C@H]2O)[C@](C)(O)C[C@@H](C)[C@H](N(C)C)[C@H](C)[C@@H](O)[C@]1(C)O [Compound 69, 9-Deoxo-9-(dimethylamino)erythromycin] | – | 128 µg/mL (≈ 168 µM) | 2 µg/mL (≈ 2.62 µM) | – | – | 0.25 µg/mL (≈ 0.328 µM) | 0.5 µg/mL (≈ 0.655 µM) | – | – | > 128 µg/mL | – | – | > 128 µg/mL | MIC [1]: 2 µg/mL (≈ 2.62 µM)
CC[C@H]1OC(=O)[C@H](C)[C@@H](O[C@H]2C[C@@](C)(OC)[C@@H](O)[C@H](C)O2)[C@H](C)[C@@H](O[C@@H]2O[C@H](C)C[C@H](N(C)C)[C@H]2O)[C@](C)(O)C[C@@H](C)[C@H](N(C)C(C)C)[C@H](C)[C@@H](O)[C@]1(C)O [Compound 70, 9-Deoxo-9-[(N-methyl-N-isopropyl)amino]erythromycin] | – | – | 8 µg/mL (≈ 10.1 µM) | – | 8 µg/mL (≈ 10.1 µM) | 0.5 µg/mL (≈ 0.632 µM) | 2 µg/mL (≈ 2.53 µM) | 0.5 µg/mL (≈ 0.632 µM) | > 128 µg/mL | > 128 µg/mL | > 128 µg/mL | > 128 µg/mL | > 128 µg/mL | –
CCCN1CO[C@@H]2[C@@H](C)[C@@H]1[C@H](C)C[C@@](C)(O)[C@H](O[C@@H]1O[C@H](C)C[C@H](N(C)C)[C@H]1O)[C@@H](C)[C@H](O[C@H]1C[C@@](C)(OC)[C@@H](O)[C@H](C)O1)[C@@H](C)C(=O)O[C@H](CC)[C@@]2(C)O [Compound 59] | – | – | 0.125 µg/mL (≈ 0.158 µM) | – | – | – | 0.125 µg/mL (≈ 0.158 µM) | – | – | > 128 µg/mL | – | – | – | –
CC[C@H]1OC(=O)[C@H](C)[C@@H](O[C@H]2C[C@@](C)(OC)[C@@H](O)[C@H](C)O2)[C@H](C)[C@@H](O[C@@H]2O[C@H](C)C[C@H](N(C)C)[C@H]2O)[C@](C)(O)C[C@@H](C)[C@H](N(C)C2CCCCC2)[C@H](C)[C@@H](O)[C@]1(C)O [Compound 71, 9-Deoxo-9-[(N-cyclohexyl-N-methyl)amino]erythromycin] | – | – | 8 µg/mL (≈ 9.63 µM) | – | 16 µg/mL (≈ 19.3 µM) | 1 µg/mL (≈ 1.2 µM) | 8 µg/mL (≈ 9.63 µM) | 0.125 µg/mL (≈ 0.15 µM) | > 128 µg/mL | > 128 µg/mL | > 128 µg/mL | > 128 µg/mL | > 128 µg/mL | MIC [6]: 128 µg/mL (≈ 154 µM)
